According to patent US12599640B2, “Lactobacillus plantarum ZUST49 and bacterial agent, and use thereof” (ZHEJIANG UNIVERSITY OF SCIENCE AND TECHNOLOGY, priority 2023, dated 2026):

Test: Production of sulforaphane by feeding mice with enteric capsule (plasma sulforaphane, cyclocondensation method)
Type: in vivo
Details: mouse plasma; intragastric glucoraphanin aqueous solution, 150 μmol of glucoraphanin/kg; blood taken at 0 h and 12 h
Text: C57BL/6 male mice of 6 to 8 weeks were pre-reared for 1 week and randomly divided into an enteric capsule group, a glucoraphanin group, and a blank group. Mice in the enteric capsule group were intragastrically administered daily with an enteric capsule aqueous solution containing Lactobacillus plantarum ZUST49 and glucoraphanin (150 μmol of glucoraphanin/kg and ZUST49 content of 8.7×10^5 CFU/g, and prepared according to the method of example 3). The mice in the glucoraphanin group were intragastrically administrated with a glucoraphanin aqueous solution (150 μmol of glucoraphanin/kg). The mice were fed with food and water ad libitum. Food intake and weight were recorded daily. The mice were deeply anesthetized with an intraperitoneal injection of ketamine/xylazine (87 mg/mL and 13 mg/mL respectively, and 0.1 mL/100 g mice) at 0 h and 12 h (6 mice/group each time period), and put to death by cervical dislocation after blood collection by cardiac puncture. The sulforaphane content in plasma of the mice was determined by a cyclocondensation method.

## C[S+]([O-])CCCC/C(=N\OS(=O)(=O)O)S[C@@H]1O[C@H](CO)[C@@H](O)[C@H](O)[C@H]1O (stereo partly shown) [glucoraphanin]
  sulforaphane content in the plasma of the mice: 0.017 ± 0.030 µM
